Measurements reported in article PMC7362391, “USP30 sets a trigger threshold for PINK1–PARKIN amplification of mitochondrial ubiquitylation” (Life Science Alliance, 2020).

Key:
USP30 = target: T1, USP30 (Homo sapiens, UniProt Q70CQ3); assay: bio-layer interferometry (no significant off-rate); IC50 and kinact/KI with purified USP30 and ubiquitin-rhodamine; Ub-PA competition in lysate and cells; assay type: biochemical
T1 construct: BLI: residues 64-502Δ179-216 & 288-305 (biotinylated); activity assay: residues 57-517
T1 sequence (Q70CQ3 57-517): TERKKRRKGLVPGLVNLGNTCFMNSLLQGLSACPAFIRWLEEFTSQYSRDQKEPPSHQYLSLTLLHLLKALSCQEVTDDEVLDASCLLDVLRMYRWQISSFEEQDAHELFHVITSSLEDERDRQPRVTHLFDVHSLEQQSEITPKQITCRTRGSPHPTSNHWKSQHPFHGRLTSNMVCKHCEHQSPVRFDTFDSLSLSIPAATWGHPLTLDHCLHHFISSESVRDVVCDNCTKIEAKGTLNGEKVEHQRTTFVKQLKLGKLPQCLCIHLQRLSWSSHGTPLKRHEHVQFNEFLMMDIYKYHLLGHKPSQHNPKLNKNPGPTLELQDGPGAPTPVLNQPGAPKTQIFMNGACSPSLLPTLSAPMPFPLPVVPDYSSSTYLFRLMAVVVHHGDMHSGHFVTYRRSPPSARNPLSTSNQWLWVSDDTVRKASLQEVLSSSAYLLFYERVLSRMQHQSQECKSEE
Source text: bio-layer interferometry (no significant off-rate); IC50 and kinact/KI with purified USP30 and ubiquitin-rhodamine; Ub-PA competition in lysate and cells on USP30 | Bio-layer interferometry experiments show binding behaviour that is consistent with covalent modification of USP30

USP6 = USP6 (Homo sapiens, UniProt P35125); assay: DUB profiler selectivity panel (Ubiquigent) at […]; assay type: biochemical
Sequence of USP6 (P35125 whole entry): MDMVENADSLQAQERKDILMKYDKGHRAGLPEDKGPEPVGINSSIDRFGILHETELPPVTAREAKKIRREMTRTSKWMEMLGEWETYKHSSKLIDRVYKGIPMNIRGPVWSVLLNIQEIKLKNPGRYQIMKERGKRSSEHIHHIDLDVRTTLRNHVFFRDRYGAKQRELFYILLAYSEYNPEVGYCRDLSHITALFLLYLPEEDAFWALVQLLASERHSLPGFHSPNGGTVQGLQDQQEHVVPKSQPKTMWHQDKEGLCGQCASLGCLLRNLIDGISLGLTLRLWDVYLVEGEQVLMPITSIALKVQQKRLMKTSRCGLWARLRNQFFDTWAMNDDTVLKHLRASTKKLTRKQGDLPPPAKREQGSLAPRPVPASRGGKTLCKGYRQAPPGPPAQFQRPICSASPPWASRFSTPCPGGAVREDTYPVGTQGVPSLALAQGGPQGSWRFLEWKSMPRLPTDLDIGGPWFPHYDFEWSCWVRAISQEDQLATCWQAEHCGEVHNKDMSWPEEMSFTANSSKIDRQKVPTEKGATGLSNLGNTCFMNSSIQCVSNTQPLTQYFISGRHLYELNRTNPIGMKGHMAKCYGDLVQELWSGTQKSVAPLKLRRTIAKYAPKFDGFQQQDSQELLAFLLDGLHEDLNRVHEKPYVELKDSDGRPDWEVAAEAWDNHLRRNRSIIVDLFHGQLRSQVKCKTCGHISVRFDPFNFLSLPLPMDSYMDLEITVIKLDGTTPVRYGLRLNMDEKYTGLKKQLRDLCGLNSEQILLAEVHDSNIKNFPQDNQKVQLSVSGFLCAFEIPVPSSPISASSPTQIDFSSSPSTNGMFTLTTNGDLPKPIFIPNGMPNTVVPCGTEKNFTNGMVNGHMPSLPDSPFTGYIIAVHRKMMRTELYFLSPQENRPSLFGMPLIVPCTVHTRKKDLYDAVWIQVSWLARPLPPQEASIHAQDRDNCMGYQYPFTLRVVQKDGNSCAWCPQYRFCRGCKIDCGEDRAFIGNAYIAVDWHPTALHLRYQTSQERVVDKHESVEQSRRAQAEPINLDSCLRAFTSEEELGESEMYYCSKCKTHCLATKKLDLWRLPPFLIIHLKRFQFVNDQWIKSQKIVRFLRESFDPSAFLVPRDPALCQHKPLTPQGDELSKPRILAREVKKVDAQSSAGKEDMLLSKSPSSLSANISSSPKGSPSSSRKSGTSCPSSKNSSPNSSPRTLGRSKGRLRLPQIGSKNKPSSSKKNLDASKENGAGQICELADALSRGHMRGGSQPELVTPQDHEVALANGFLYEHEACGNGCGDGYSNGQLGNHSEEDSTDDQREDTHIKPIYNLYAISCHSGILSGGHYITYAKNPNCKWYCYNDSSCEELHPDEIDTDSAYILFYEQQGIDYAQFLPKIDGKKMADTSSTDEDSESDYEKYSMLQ

IC50 (USP30): ~1 nM
SMILES: N#CN1CCC(NC(=O)c2cc(-c3ccccc3Oc3ccccc3)n[nH]2)C1 (centres unmarked) [FT385, FT3967385]
DUB profiler selectivity panel (Ubiquigent) at 2, 20 and 200 nM (USP6): Only one other family member, the plasma membrane–associated USP6, showed a significant degree of inhibition
